Values joined by “and” are separate entries in the source; they are usually repeats but may differ in a detail not shown here. Equal entries are not always repeated. Active and inactive are the calls of the source.
What was measured:
[1] = target: T1, Sentrin-specific protease 7 (Homo sapiens, UniProt Q9BQF6); assay type: functional;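 note: Luminescence-based dose-response confirmation of ultra-high-throughput screening hits, measuring inhibition of SENP7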
T1 sequence (Q9BQF6 whole entry): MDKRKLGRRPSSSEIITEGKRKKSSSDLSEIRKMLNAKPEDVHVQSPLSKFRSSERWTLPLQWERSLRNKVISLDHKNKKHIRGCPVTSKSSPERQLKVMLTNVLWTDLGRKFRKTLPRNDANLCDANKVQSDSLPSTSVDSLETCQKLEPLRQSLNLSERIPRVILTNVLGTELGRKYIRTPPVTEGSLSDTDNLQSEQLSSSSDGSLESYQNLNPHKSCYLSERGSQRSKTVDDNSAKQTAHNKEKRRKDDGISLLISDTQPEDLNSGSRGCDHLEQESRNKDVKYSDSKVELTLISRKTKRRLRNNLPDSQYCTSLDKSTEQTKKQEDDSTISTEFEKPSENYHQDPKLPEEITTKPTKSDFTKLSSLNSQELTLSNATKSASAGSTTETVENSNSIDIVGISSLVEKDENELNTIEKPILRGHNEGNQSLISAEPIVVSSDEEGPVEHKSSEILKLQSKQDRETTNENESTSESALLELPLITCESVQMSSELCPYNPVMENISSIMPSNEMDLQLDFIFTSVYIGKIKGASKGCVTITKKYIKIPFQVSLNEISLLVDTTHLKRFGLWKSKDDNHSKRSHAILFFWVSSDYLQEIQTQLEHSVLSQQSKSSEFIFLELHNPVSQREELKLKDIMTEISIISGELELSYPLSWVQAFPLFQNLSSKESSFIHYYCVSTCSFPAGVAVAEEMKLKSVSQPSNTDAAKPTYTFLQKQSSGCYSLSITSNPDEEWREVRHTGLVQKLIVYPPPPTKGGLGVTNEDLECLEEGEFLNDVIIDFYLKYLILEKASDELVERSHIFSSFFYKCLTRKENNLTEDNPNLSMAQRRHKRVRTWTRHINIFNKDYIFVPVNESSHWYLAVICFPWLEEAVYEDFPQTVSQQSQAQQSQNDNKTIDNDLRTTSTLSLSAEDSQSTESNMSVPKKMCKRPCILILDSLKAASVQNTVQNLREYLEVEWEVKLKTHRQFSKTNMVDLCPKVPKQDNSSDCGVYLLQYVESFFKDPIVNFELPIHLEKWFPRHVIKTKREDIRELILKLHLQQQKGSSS

[2] = target: T1, Sentrin-specific protease 7; experiment: inhibition of human SENP7 cleavage activity – biochemical, luminescence, SAR follow-up (AID 504497); assay type: functional
[3] = target: T2, Mannose-6-phosphate isomerase (Homo sapiens, UniProt P34949); experiment: MPI inhibition at elevated mannose 6-phosphate – biochemical, fluorescence intensity, high mannose 6-phosphate, primary screen (AID 1220)
T2 sequence (P34949 whole entry): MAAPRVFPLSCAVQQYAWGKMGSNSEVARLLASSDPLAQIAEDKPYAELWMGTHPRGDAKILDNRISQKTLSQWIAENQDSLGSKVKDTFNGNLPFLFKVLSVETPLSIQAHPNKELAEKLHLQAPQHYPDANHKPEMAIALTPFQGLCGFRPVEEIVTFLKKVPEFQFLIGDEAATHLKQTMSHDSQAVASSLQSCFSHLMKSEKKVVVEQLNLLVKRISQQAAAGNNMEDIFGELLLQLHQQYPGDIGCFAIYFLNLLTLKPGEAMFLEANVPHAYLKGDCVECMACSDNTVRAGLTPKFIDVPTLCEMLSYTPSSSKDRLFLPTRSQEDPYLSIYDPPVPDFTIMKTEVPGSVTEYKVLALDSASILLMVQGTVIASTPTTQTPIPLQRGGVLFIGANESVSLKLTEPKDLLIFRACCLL

[4] = cytotoxicity toward Colo320 cells – cell-based, CellTiter-Glo luminescence, IC50, dose response (AID 1117334); assay type: functional; conditions: COLO 320
[5] = target: T3, Heat shock factor protein 1 (Mus musculus, UniProt P38532); experiment: enhancement of HSF1-driven luciferase signal – cell-based, NIH3T3, luminescence, dose retest, confirmation (AID 435004); assay type: functional;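 note: stress induced by proteasome inhibitor MG132 added 30 min after compound; luciferase reporter driven by HSF1 response element in NIH3T3 cells; actives raise luminescence as potentiators of the MG132 stress response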
T3 sequence (P38532 whole entry): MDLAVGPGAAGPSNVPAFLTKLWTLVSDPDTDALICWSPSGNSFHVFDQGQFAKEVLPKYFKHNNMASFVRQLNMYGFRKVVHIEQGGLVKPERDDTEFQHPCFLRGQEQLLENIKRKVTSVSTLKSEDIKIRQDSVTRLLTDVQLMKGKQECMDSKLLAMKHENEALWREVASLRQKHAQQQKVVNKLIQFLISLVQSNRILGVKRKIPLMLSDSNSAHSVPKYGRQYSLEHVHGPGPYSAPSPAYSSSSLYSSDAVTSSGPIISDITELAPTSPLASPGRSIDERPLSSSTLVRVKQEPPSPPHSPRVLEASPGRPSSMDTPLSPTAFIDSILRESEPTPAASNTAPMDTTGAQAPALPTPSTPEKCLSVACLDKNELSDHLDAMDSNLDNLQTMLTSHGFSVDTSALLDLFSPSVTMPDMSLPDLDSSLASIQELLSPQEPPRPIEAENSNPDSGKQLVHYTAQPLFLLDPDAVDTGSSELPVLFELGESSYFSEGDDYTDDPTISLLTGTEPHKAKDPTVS

BJ = experiment: BJ-TERT-LT-ST fibroblast viability loss – cell-based, RAS-independent, luminescence, dose response (AID 1935); assay type: functional; conditions: Homo sapiens;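 note: BJ fibroblasts immortalized with TERT plus LT and ST oncogenes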
[6] = Reduced DLD-1 viability, concentration-response, CellTiter-Glo luminescence (AID 1117352); assay type: functional
[7] = target: T4, RNA-binding protein pos-1 (Caenorhabditis elegans, UniProt G5EF15); experiment: disruptors of C. elegans POS-1 RNA interaction – biochemical, fluorescence polarization, dose response (AID 1964);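 note: purified POS-1 fused to maltose binding protein made in E. coli; potency of compounds blocking POS-1 binding to fluorescent RNA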
T4 sequence (G5EF15 whole entry): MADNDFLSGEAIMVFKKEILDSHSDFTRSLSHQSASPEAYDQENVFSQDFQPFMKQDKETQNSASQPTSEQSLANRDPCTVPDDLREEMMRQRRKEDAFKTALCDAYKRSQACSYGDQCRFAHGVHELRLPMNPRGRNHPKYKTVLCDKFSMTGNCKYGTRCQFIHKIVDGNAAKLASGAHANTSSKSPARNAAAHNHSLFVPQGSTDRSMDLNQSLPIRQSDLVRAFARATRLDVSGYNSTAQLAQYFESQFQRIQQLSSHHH

[8] = HCT116 cell viability decrease, GSK3B pretreatment – CellTiter-Glo, IC50, dose response (AID 1117339); assay type: functional; conditions: HCT-116

SMILES: CCCOc1cc2c(C#N)c(N3CCCC3)nc(N)c2c(N)n1
- IC50 [1]: 4.45 µM (active)

SMILES: Oc1ccc(/C=N/Nc2cc(N3CCCC3)nc(N3CCCC3)n2)cc1O
- IC50 [2]: 58.1 µM (active) and 39.7 µM (active)
- IC50 [3]: > 50 µM (not active)

SMILES: Cc1cc2nc3ccc(N(C)C)cc3[s+]c2cc1N [TOLONIUM CHLORIDE]
- IC50 [4]: 0.987 µM (active)
- EC50 [5]: > 260 µM (inactive)
- EC50 (BJ): 9.19 µM (inconclusive)
- IC50 [6]: 9.38 µM (inactive)
- EC50 [7]: > 300 µM (not active)
- IC50 [8]: 1.69 µM (active)

From ChEMBL document CHEMBL1201862, “PubChem BioAssay data set” (2004)
